Measurements taken from article PMC10035370, “Targeting Tumor Angiogenesis with the Selective VEGFR-3 Inhibitor EVT801 in Combination with Cancer Immunotherapy” (Cancer Research Communications, 2022).
Where two headings read alike, the source gives them in different places.

Tests used:
[1] = tested on: NCI-H1703 tumor xenografts; assay: NCI-H1703 subcutaneous xenograft tumor mouse model; type: in vivo, mice; details: 30 mg/kg twice per day
Description: A total number of 40 homozygous NOD.CB17 Prkdc^scid/NCrHsd mice were used for the xenograft tumor model. On the day of implantation, NCI-H1703 cells were harvested and suspended at a concentration of 1 × 10^8 cells per mL in an equal mix of Cultrex:RPMI without supplements. A volume of 100 μL was injected into the right hind flank of each animal. Tumor volumes were monitored until mean tumor volume reached 150 mm^3. Then, mice were stratified into four treatment groups of each 10 mice and orally dosed twice per day with either EVT801 30 mg/kg and EVT801 vehicle [Soluplus (BASF)/water/hydroxypropylcellulose SL (Nisso America)], or 30 mk/kg pazopanib and pazopanib vehicle (0.5% Hydroxypropyl methylcellulose trimellitate (HPMCT) + 0.1% Tween-80). A period of 8 hours was observed between the first and second daily dose.

hLMVEC = assay: Growth factor-induced hLMVEC proliferation; type: cell-based, human; details: for IC50: Homo sapiens
Description: hLMVEC were seeded in white cell culture-treated flat and clear bottom multi-well plates and incubated at 37 °C overnight, before compounds were added. After incubation for 72 h at 37 °C, plates were equilibrated to ambient temperature for 1 h, and CellTiterGlo reagent (Promega) was added. After approximately 1h, luminescence was measured using a luminometer. Curves were fitted via sigmoidal dose response curves, and IC50 values were determined.

CT26 tumors = assay: CT26 ectopic tumor mouse model; type: in vivo, mice
Description: BALB/c mice were anesthetized with ketamine (100 mg/kg) combined with xylazine (10 mg/kg) via intraperitoneal injection. A total of 5 × 10^4 CT26 tumor cells were suspended in 200 μL of Matrigel matrix, and then inoculated in the flank of legs. After implantation, mice were randomly separated into two groups. One group received EVT801 by oral gavage and anti-PD-1 by intraperitoneal injection in a volume of 10 mL/kg, whereas the mice in the second group served as control, and were injected with IgG isotype. PD-1 was injected at day 11, day 14, and day 18 after CT26 inoculation. EVT801 was administrated daily by oral route at 30 mg/kg from day 11 until day 21. Tumor volume was measured on days 11, 13, 15, 18, 19 and 21 following tumor cell injection. The selected groups received vehicle or EVT801 orally in a volume of 10 mL/kg. At day 21, 60 mg/kg hypoxyprobe was injected 30 minutes before sacrifice of mice. The tumors were embedded in paraffin for histology studies.

VEGFR-3 [2] = target: T1, VEGFR-3 (Homo sapiens, UniProt P35916); assay: Biochemical kinase assay (in vitro assay), VEGFR-3; parameters: expressed in transfected cells; host or cells: HEK293T; details: read-out: IC50 in biochemical assays, VEGFR-3
Description: Sigma protein kinase assay kits were used. 125 μL per well of Poly-Glu-Tyr (PGT) solution (250 μg/mL of PGT in PBS without Ca^2+, Mg^2+ and sodium bicarbonate) was added in a 96-well plate and overnight incubation was performed at 37 °C. The day after, coating solution was removed and wells were washed with 300 μL of PBS-Tween-20 0.05 %. The washing buffer was removed and wells were dried for 2 h at 37 °C. 90 μL of the kinase buffer was supplemented with ATP (30 μM for VEGFR-1 and VEGFR-3, and 15 μM for VEGFR-2), and the compound (EVT801 or SAR401849 at the indicated concentration or 1 % DMSO for the vehicle control). The phosphorylation reaction was initiated by the addition of 20 μL of kinase buffer without ATP supplemented with 100 ng of the tyrosine kinase (or without tyrosine kinase as control). Plates were incubated with gentle agitation at room temperature for 30 min. After 3 washes with 300 μL of washing buffer, 100 μL of phosphotyrosine specific monoclonal antibody conjugated to HRP (1:30,000) was added onto the phosphorylated PGT. Plates were incubated for 30 min at room temperature under gentle agitation. Then, 3 washes with 300 μL of washing buffer were performed. […] After 7 min at room temperature, the reaction was stopped by addition of 100 μL of […], and absorbance was determined with an Endvision spectrophotometer at 492 nm.
Target sequence in this assay (P35916 25-1363): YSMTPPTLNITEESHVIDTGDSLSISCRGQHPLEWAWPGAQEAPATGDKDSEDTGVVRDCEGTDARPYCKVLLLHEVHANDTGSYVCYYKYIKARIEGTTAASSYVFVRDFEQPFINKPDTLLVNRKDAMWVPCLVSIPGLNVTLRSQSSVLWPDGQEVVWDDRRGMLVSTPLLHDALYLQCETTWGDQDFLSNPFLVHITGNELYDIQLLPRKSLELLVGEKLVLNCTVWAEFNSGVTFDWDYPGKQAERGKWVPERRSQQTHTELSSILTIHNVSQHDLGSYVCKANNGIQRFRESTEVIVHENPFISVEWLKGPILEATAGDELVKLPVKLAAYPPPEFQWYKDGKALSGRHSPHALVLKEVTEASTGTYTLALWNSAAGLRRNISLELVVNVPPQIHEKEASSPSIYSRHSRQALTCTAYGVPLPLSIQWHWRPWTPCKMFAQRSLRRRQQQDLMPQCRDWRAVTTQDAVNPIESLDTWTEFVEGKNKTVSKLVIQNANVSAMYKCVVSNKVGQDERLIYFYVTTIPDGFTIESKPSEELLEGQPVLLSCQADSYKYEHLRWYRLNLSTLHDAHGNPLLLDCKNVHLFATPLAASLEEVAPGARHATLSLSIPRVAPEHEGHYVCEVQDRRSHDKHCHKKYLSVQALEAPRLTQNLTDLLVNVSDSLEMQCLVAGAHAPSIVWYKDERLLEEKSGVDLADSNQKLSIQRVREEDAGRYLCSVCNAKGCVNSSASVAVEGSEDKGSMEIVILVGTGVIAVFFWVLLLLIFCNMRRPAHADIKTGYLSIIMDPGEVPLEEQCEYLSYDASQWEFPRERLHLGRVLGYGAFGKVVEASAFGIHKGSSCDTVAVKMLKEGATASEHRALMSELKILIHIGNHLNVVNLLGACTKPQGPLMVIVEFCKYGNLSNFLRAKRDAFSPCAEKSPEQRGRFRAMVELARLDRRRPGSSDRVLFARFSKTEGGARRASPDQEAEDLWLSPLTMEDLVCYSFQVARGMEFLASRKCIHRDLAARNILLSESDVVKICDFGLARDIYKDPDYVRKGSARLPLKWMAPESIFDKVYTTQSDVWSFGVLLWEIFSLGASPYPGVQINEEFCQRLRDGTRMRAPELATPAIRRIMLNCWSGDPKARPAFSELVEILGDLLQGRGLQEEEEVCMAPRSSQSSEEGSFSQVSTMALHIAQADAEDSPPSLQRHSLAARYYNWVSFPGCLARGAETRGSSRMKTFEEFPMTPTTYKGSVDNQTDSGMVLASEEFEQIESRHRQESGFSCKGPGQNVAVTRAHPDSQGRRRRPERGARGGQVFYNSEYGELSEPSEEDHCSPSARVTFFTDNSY

VEGFR-3 [3] = target: T1, VEGFR-3; assay: Viability of Ba/F3 cells dependent on VEGFR-3; type: cell-based; parameters: fusion proteins consisting of constructs for IL-3 independent survival and either VEGFR-2 or VEGFR-3 kinase domains; expressed in transfected cells; host or cells: Ba/F3 (stably transduced)
Description: Ba/F3 cells were transduced and selected to stably express fusion proteins consisting of constructs for IL-3 independent survival and either VEGFR-2 or VEGFR-3 kinase domains or without the kinase domain. Proliferation and survival of cell lines was dependent on expression of the transcript. Cells in logarithmic-phase growth were harvested and 5 x 10^3 cells were distributed into each well of a 384-well plate in 50 µL of medium. Then, 50 nL of EVT801, SAR401849 or their vehicle solvent were added to appropriate wells. After 48 h, viability was determined by addition of 10 µL CellTiterGlo reagent (Promega). Luminescence was determined as relative light units (RLU) in counts per second.
Target sequence in this assay (P35916 845-1173 limits assumed, species assumed): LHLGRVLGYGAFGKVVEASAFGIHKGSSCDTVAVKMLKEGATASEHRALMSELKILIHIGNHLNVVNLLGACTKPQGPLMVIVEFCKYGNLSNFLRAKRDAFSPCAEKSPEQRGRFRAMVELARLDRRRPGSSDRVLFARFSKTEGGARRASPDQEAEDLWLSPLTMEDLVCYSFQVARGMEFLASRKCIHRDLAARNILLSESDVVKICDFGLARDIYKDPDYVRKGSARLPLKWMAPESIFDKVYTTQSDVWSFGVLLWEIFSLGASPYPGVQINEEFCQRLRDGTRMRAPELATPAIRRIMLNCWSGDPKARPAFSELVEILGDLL

CCn1c(N)c(-c2ncc[nH]2)c(=O)c2ccc(C#C[C@@](C)(O)COC)nc21 [EVT801]
CD31 IHC, tumor vessels [1]: decreased the number of vessels while increasing the proportion of larger ones | decrease of tumor weight compared with vehicle ([1]; endpoint): 82% | T/C ratio, tumor growth ([1]; oral, vs corresponding vehicle): 24% | IC50 (hLMVEC; read-out: IC50, inhibition of VEGF-A-induced hLMVEC proliferation): 155 nM | IC50 (hLMVEC; read-out: IC50, inhibition of VEGF-C-induced hLMVEC proliferation): 15 nM | IC50 (hLMVEC; read-out: IC50, inhibition of VEGF-D-induced hLMVEC proliferation): 8 nM | maximum inhibition of VEGF-A-induced hLMVEC proliferation (hLMVEC; VEGF-A): 65% | maximum inhibition of VEGF-C-induced hLMVEC proliferation (hLMVEC; VEGF-C): 74% | maximum inhibition of VEGF-D-induced hLMVEC proliferation (hLMVEC; VEGF-D): 100% | T/C ratio, tumor volume (CT26 tumors; BALB/c mice, EVT801 30 mg/kg twice per day, anti-PD-1 twice per week, or both): 55% | reduction of hypoxyprobe-positive areas compared with vehicle (CT26 tumors; end of treatment, not statistically significant): 42% | IC50 (VEGFR-3 [2]): 11 nM | IC50 (VEGFR-3 [3]): 24 nM
